Data on 31 compounds can be found in the supplement of paper PMC11616607.

The subject of one test is OVCAR5. In words: drug sensitivity score (DSS) from 5-point dose-response viability curve (DSS (area-under-curve based score)); higher = more sensitive (stronger growth inhibition or killing); extreme values may be limits of the assay. The following applies: exposure time: 72 h; concentration range: 5 concentrations over 10,000-fold range. The essentials:
(§1)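 For the drug sensitivity score, obtained per cell line and drug in Breeze software, larger values mean greater sensitivity. No response corresponds to a score of zero. Ovarian cancer and normal ovarian cells were seeded at 1,500 per well into 384-well plates already holding acoustically dispensed drugs (Echo 550, DMSO or water, five concentrations over a 10,000-fold range) and incubated 3 days at 37°C, 5% CO2. CellTiter-Glo luminescence on a PHERAstar FS gave the viability readout.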
Regarding `CC(C)[C@H](C(=O)Nc1ccc(C(=O)NO)cc1)c1ccccc1` [AR-42], the drug sensitivity score was 16.5. The same measure, in the same setting: under `Cc1sc2c(c1C)C(c1ccc(Cl)cc1)=N[C@@H](CC(=O)Nc1ccc(OCCOCCOCCOCCNc3cccc4c3C(=O)N(C3CCC(=O)NC3=O)C4=O)cc1)c1nnc(C)n1-2` (some centres not stated) [ARV-825] stands 7.9. On the same count and under the same terms, under `COc1cc(N2CCC(N3CCN(C)CC3)CC2)ccc1Nc1ncnc(Nc2ccccc2S(=O)(=O)C(C)C)n1` [ASP3026] stands 8.2. Same read-out and setting: with `O=C(NC1CCNCC1)c1n[nH]cc1NC(=O)c1c(Cl)cccc1Cl` [AT7519] the figure was 13.5.

The compound `O=C(Nc1c[nH]nc1-c1nc2ccc(CN3CCOCC3)cc2[nH]1)NC1CC1` [AT9283] showed a drug sensitivity score of 4.6.

As for `CC[C@H](CC#N)OC(=O)N[C@@H](C)c1cccc(NC(=O)Nc2ccc(-c3cnco3)c(OC)c2)c1` [AVN944], the drug sensitivity score turned out to be 13.6. Still for that read-out and setting: under `COc1cc(N2CCN(C)CC2)ccc1Nc1nccc(-c2cn(C)c3cnccc23)n1` [AZ191] stands 2. For `COc1cc(OC2CCN(C)CC2)ccc1Nc1ncc2c(n1)n(C1CCCC1)c(=O)n2C` [AZ 3146], the drug sensitivity score amounted to 6.2.

The compound `CN(C)CCCOc1ccc(-c2ccc3ncc4c(c3c2)n(C2CCOCC2)c(=O)n4C)cn1` [AZD0156] gave a drug sensitivity score of 1.4. The same measure, in the same setting: with `N[C@@H]1CCCN(c2c(/C=C3\SC(=O)NC3=O)cccc2-c2ccccc2)C1` [AZD1208] the figure was 1.4; with `Cc1cc(Nc2nc(N[C@@H](C)c3ncc(F)cn3)ncc2Cl)[nH]n1` [AZD1480], 0.5. Still for that read-out and setting: with `COc1cc2ncnc(Nc3cccc(Cl)c3F)c2cc1OC(=O)N1CCN(C)C[C@H]1C` [AZD3759] the figure was 0.2; with `Cc1[nH]nc(C(F)(F)F)c1Cc1sc2c(c1C(=O)N1C[C@](C)(O)CO1)c(=O)n(C)c(=O)n2C(C)C` [AZD3965], 0. Same read-out and setting: under `COc1cc(CCc2cc(NC(=O)c3ccc(N4CC(C)NC(C)C4)cc3)n[nH]2)cc(OC)c1` (configuration not stated) [AZD4547] stands 0; under `CN(C)C(=O)c1ccc(S(=O)(=O)c2ccc(NC(=O)[C@@](C)(O)C(F)(F)F)c(Cl)c2)cc1` [AZD7545], 0.

`NC(=O)Nc1cc(-c2cccc(F)c2)sc1C(=O)N[C@H]1CCCNC1` [AZD7762] showed a drug sensitivity score of 6.6.

The test system of a further test is OVCAR4. Described as above. As to conditions: exposure time: 72 h; concentration range: 5 concentrations over 10,000-fold range. In short, it runs like this:
as §1
For `CCOc1ccn(-c2ccc(F)cc2)c(=O)c1C(=O)Nc1ccc(Oc2ccnc(N)c2Cl)c(F)c1`, the drug sensitivity score stood at 0.

With `CCn1c(C(=O)N(C2CC2)C2CC2)cc2c3c(ncn3C)c(Nc3cc(C)n(C)n3)nc21`, the drug sensitivity score was 0.3. `C[C@@]1(C(=O)Nc2ccc(F)nc2)CCCN1c1nc(Nc2cc(C3CC3)n[nH]2)c2cccn2n1`: the drug sensitivity score was 7.2. Regarding `Cc1c(-c2ccc(N3CCc4cccc(C(=O)Nc5nc6ccccc6s5)c4C3)nc2C(=O)O)cnn1CC12CC3CC(CC(C3)C1)C2`, the drug sensitivity score is 2.1. Same read-out and setting: under `Cc1nn(C)c(COc2ccc(N3CCN(S(=O)(=O)N(C)C)CC3)cc2)c1-c1cccc2c(CCCOc3cccc4ccccc34)c(C(=O)O)n(CCN3CCOCC3)c12` stands 5.1; under `O=c1[nH]c(C2CCCN2)nc2c1oc1ccc(Cl)cc12` (configuration not stated), 0; under `COc1ccc(C[C@H](NC(=O)[C@H](C)NC(=O)CN2CCOCC2)C(=O)N[C@@H](Cc2ccccc2)C(=O)C2(C)CO2)cc1` (stereo in doubt) [ONX-0914], 17.1. On the same count and under the same terms, under `CC/C(=C(\c1ccc(O)cc1)c1ccc(OCCN(C)C)cc1)c1ccccc1` [4-hydroxytamoxifen] stands 2.1; under `Nc1ncnc2c1nc(N)n2[C@@H]1O[C@H](CO)[C@@H](O)[C@H]1O` [8-amino-adenosine], 19.

Regarding `Nc1ncnc2c1nc(Cl)n2[C@@H]1O[C@H](CO)[C@@H](O)[C@H]1O` [8-chloro-adenosine], the drug sensitivity score is 8. Take `COc1cc2c(cc1OCCCN1CCCC1)N=C(N)C21CCC1` [A-366]: the drug sensitivity score is 0.1.

For `COc1ccc(S(=O)(=O)Nc2cccnc2Nc2ccc(O)cc2)cc1` [ABT-751], the drug sensitivity score was 5. The same measure, in the same setting: under `C[C@H](Nc1ncnc2[nH]cnc12)c1cc2ccc(F)cc2nc1-c1ccccn1` [AMG319] stands 0.7; under `COCCOc1cnc2ccn([C@H](C)c3nnc4c(F)cc(-c5cnn(C)c5)cn34)c(=O)c2c1` [AMG-337], 0. Same read-out and setting: with `CC1CCC(n2c3cnccc3c3cnc(Nc4ccc5c(n4)CCN(C(=O)CO)C5)nc32)CC1` (configuration not stated) [AMG-925] the figure was 0; with `CC(C)[C@H](C(=O)Nc1ccc(C(=O)NO)cc1)c1ccccc1` [AR-42], 7.2; with `Cc1sc2c(c1C)C(c1ccc(Cl)cc1)=N[C@@H](CC(=O)Nc1ccc(OCCOCCOCCOCCNc3cccc4c3C(=O)N(C3CCC(=O)NC3=O)C4=O)cc1)c1nnc(C)n1-2` (some centres not stated) [ARV-825], 8.2. For the compound `COc1cc(N2CCC(N3CCN(C)CC3)CC2)ccc1Nc1ncnc(Nc2ccccc2S(=O)(=O)C(C)C)n1` [ASP3026], the drug sensitivity score amounted to 4.3.

`O=C(NC1CCNCC1)c1n[nH]cc1NC(=O)c1c(Cl)cccc1Cl` [AT7519] displayed a drug sensitivity score of 9.3. The same measure, in the same setting: under `O=C(Nc1c[nH]nc1-c1nc2ccc(CN3CCOCC3)cc2[nH]1)NC1CC1` [AT9283] stands 6.8; under `CC[C@H](CC#N)OC(=O)N[C@@H](C)c1cccc(NC(=O)Nc2ccc(-c3cnco3)c(OC)c2)c1` [AVN944], 7; under `COc1cc(N2CCN(C)CC2)ccc1Nc1nccc(-c2cn(C)c3cnccc23)n1` [AZ191], 0.6. `COc1cc(OC2CCN(C)CC2)ccc1Nc1ncc2c(n1)n(C1CCCC1)c(=O)n2C` [AZ 3146]: the drug sensitivity score stood at 1.5.

Turning to `CN(C)CCCOc1ccc(-c2ccc3ncc4c(c3c2)n(C2CCOCC2)c(=O)n4C)cn1` [AZD0156], the drug sensitivity score is 0. Still for that read-out and setting: under `N[C@@H]1CCCN(c2c(/C=C3\SC(=O)NC3=O)cccc2-c2ccccc2)C1` [AZD1208] stands 0; under `Cc1cc(Nc2nc(N[C@@H](C)c3ncc(F)cn3)ncc2Cl)[nH]n1` [AZD1480], 0.5; under `COc1cc2ncnc(Nc3cccc(Cl)c3F)c2cc1OC(=O)N1CCN(C)C[C@H]1C` [AZD3759], 0. Compound `Cc1[nH]nc(C(F)(F)F)c1Cc1sc2c(c1C(=O)N1C[C@](C)(O)CO1)c(=O)n(C)c(=O)n2C(C)C` [AZD3965] had a drug sensitivity score of 0.

Compound `COc1cc(CCc2cc(NC(=O)c3ccc(N4CC(C)NC(C)C4)cc3)n[nH]2)cc(OC)c1` (configuration not stated) [AZD4547] registered a drug sensitivity score of 0. Same read-out and setting: with `CN(C)C(=O)c1ccc(S(=O)(=O)c2ccc(NC(=O)[C@@](C)(O)C(F)(F)F)c(Cl)c2)cc1` [AZD7545] the figure was 0; with `NC(=O)Nc1cc(-c2cccc(F)c2)sc1C(=O)N[C@H]1CCCNC1` [AZD7762], 7.
